{
  "source": "paper PMC10520499",
  "about": "“Next step in the development of mesoprogestins: the preclinical profile of EC313” (Frontiers in Endocrinology, 2023)",
  "key": {"[1]": {"target": "T1, human progesterone receptor ligand binding domain (PR-LBD) (Homo sapiens, UniProt P06401)", "T1 construct": "purchased Thermo Fisher Scientific", "T1 sequence (P06401 679-913 limits assumed)": "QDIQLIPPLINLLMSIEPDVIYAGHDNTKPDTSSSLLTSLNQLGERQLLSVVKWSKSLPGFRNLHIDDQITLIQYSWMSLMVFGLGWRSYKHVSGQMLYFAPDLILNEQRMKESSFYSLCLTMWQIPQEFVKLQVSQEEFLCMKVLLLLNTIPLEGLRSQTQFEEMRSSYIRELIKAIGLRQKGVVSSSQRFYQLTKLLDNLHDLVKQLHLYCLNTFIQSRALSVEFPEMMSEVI", "experiment": "Competitive binding, PR ligand binding domain", "settings": "compared to progesterone", "procedure": "(§1) The study aimed to characterize the competitive binding profile of EC313 to relevant human nuclear receptors. For the assays, commercially available ‘ligand binding domain’ proteins were purchased (Thermo Fisher Scientific). In addition, the full-length receptor proteins were expressed in transfected HI insect cells using the `Bac-to-bac Baculovirus expression system´ (Thermo Fisher Scientific). Cellular lysates served as receptor preparation. Receptor protein preparations were incubated with tritiated reference ligands and EC313 or reference steroids at concentrations between 0.1 and 1000 nM for 2h at 4°C to reach equilibrium. Subsequently, unbound steroids were adsorbed to dextran-coated charcoal (Sigma Aldrich), separated by filtration, and the remaining radioactivity was quantified in a ß-counter (Perkin Elmer). Displacement curves were fitted using the GraphPad Prism 7 free version to obtain EC50 values. Relative binding affinity (RBA [%], (C50ref/C50test)*100) and the competition coefficient (C50test/C50ref) were used to describe the relative binding potency of EC313 compared to the reference ligands."}, "[2]": {"target": "T2, human estrogen receptor α (Homo sapiens, UniProt P03372)", "T2 construct": "coding for the full length human estrogen receptors α and β, respectively, were obtained from GenScript; made in house; host or cells: HI (Hi5) insect cells, baculovirus; cellular lysate", "experiment": "Competitive binding, human estrogen receptor α", "settings": "ERα, full length", "procedure": "as §1\n(§2) There are two subtypes of estrogen receptors (ER), ERα and ERβ, coded in different genes. Plasmids pFastBac1-ERa and pFastBac1-ERb, coding for the full length human estrogen receptors α and β, respectively, were obtained from GenScript. […]"}, "[3]": {"target": "T3, human estrogen receptor β (Homo sapiens, UniProt Q92731)", "T3 construct": "coding for the full length human estrogen receptors α and β, respectively, were obtained from GenScript; made in house; host or cells: HI (Hi5) insect cells, baculovirus; cellular lysate", "experiment": "Competitive binding, human estrogen receptor β", "settings": "ERβ, full length", "procedure": "as §1, §2"}, "T47D cells": {"tested_on": "T47D cells", "experiment": "Proliferation / arrest in Go/G1 in T47D cells", "format": "cell-based, human", "design": "key to Arrest in Go/G1: ↓/↑ - decreased/increased action of tested compounds.; ↓/↑ - decreased/increased action of tested compounds"}, "[4]": {"tested_on": "adrenalectomized male Wistar rats", "experiment": "Thymus-Involution-Test in adrenalectomized rats", "format": "in vivo, rat", "settings": "doses up to 100 mg/animal/day s.c., 4 days", "procedure": "The standard Thymus-Involution-Test in rats was used. […] On day 5 the animals were sacrificed, and the thymus and spleen weights were determined. Reduced weight of the thymus indicated glucocorticoid activity. Stopping the dexamethasone-induced thymus reduction by the test compound indicated anti-glucocorticoid activity."}, "Aqueous solubility": {"experiment": "Aqueous solubility", "format": "physicochemical"}, "[5]": {"tested_on": "human uterine fibroid xenografts", "design": "method as in PMID 31754172", "settings": "ref [2], cited from earlier work"}, "GR [6]": {"target": "T4, GR (Homo sapiens, UniProt P04150)", "T4 sequence (P04150 1-777)": "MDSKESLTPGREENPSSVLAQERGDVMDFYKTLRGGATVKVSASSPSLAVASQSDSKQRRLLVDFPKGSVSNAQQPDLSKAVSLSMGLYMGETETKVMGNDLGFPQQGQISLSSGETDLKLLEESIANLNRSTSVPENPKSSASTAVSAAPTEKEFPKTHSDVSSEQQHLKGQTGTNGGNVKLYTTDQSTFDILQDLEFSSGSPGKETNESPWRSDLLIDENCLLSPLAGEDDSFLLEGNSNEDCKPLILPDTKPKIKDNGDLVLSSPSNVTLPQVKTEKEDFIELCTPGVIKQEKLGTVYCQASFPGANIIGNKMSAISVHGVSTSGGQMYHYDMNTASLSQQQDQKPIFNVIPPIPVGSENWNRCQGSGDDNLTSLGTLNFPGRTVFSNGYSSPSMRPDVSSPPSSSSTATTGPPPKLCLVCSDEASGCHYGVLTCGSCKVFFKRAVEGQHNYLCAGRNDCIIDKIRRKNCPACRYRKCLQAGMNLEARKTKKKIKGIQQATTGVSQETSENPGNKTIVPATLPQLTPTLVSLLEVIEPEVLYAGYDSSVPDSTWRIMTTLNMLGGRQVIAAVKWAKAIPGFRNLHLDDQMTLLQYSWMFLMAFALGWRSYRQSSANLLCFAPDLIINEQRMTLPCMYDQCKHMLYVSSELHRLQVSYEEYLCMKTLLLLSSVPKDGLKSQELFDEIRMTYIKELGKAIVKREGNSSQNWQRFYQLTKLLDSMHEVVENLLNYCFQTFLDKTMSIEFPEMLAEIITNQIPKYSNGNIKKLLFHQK", "experiment": "Competitive binding, full length human glucocorticoid receptor", "design": "made in house; host or cells: HI (Hi5) insect cells, baculovirus; cellular lysate", "procedure": "as §1"}, "GR [7]": {"target": "T4, GR", "experiment": "GR transactivation (HELA, MMTV-LUC)", "format": "cell-based", "design": "HELA cells line carrying endogenous glucocorticoid protein; endogenous in cells; host or cells: HELA, stably transfected with the reporter only", "procedure": "HELA cells line carrying endogenous glucocorticoid protein were cultured in order to study gene expression on the transcriptional level under the influence of the tested compounds. The cells were transfected with reporter vector MMTV/LUC. To produce high protein overexpression, stable transfection was carried out. […] Agonist and antagonist properties of EC313 toward tested receptor GR were analyzed using luminescence detection.\nIn order to develop the transfection assay, plasmids were generated and isolated. Vector pGL4.36 coding the glucocorticoid receptor responsive element MMTV and firefly luciferase reporter vector [luc2P/Hygro] were used as a reporter system (pGL4.36-MMTV/LUC). The cells were transfected with reporter vector MMTV/LUC.\nstable transfection with reporter vector was performed on a 6-well plate (0.5x10^6 cells per well) in culture medium (EMEM, 10% FBS, NEAA, sodium […], L-glutamine). Briefly, according to the transfection procedure, cells were passaged, and they grew in a culture medium containing an appropriate concentration of the antibiotic (Hygromycin 150 µg/mL). Resistance to Hygromycin gene, which had been transfected together with the reporter vector to the cells, only allowed positively transfected cells to grow in this medium. Therefore, growing cell clones were selected for further steps as stable transfectants.\nAfter 24h incubation of cells with the tested compounds, luciferase activity was measured using VICTOR™ X Multilabel Plate Reader -Perkin Elmer."}},
  "note": "Several values for one entry are separate records, joined by “and”; a condition that tells them apart may be missing. Identical values can stand only once.",
  "data": [
    {"smiles": "C[C@]12C[C@H](c3ccc(-c4ccoc4)cc3)C3=C4CCC(=O)C=C4CC[C@H]3[C@@H]1CC[C@]21OCCC1=C(F)F", "note": "[EC313]", "values": [
      {"measurement": "affinity to the ligand binding domain", "setting": "[1]", "result": "the same as that of progesterone"},
      {"measurement": "competitive displacement of [3H]-estradiol", "setting": "[2]", "result": "did not cause any competitive displacement"},
      {"measurement": "competitive displacement of [3H]-estradiol", "setting": "[3]", "result": "did not cause any competitive displacement"},
      {"measurement": "estradiol-induced proliferation of T47D", "setting": "T47D cells", "result": "counteracts the estradiol-induced proliferation of T47D"},
      {"measurement": "Arrest in Go/G1", "setting": "T47D cells; Proliferation, T47D cells, statistical significance not always reached", "result": "↑"},
      {"measurement": "glucocorticoid / anti-glucocorticoid activity (thymus weight)", "setting": "[4]", "result": "neither glucocorticoid nor anti-glucocorticoid activities"},
      {"measurement": "aqueous solubility", "setting": "Aqueous solubility", "result": "very low aqueous solubility"},
      {"measurement": "uterine fibroid markers desmin and collagen", "setting": "[5]; Part A, 0.1 and 1.0 mg EC313/kg/day", "result": "markedly reduced"},
      {"measurement": "fibroid xenograft weight", "setting": "[5]; Part A, 0.1 and 1.0 mg/kg/day s.c., 60 days", "result": "reduced the fibroid xenograft weight dose-dependently"},
      {"measurement": "levels of ER and PR in grafts (immunohistochemistry)", "setting": "[5]; Part A, vs control p< 0.001, vs UPA p< 0.01", "result": "reduced"},
      {"measurement": "E2-induced proliferation in xenograft fibroids", "setting": "[5]; Part A, vs control, p< 0.0001", "result": "blocked significantly"},
      {"measurement": "lowest effective dosage, uterine fibroid model", "setting": "[5]; demonstrated previously", "result": 0.1, "unit": "mg/kg/day s.c."},
      {"measurement": "Comp. Coefficient", "setting": "GR [6]; EC313 relative to Dexamethasone", "result": "12 and 11.8"},
      {"measurement": "IC50", "setting": "GR [6]; tritiated ligand displacement", "result": "226 ± 9", "unit": "nM"},
      {"measurement": "activity on GR in transactivation", "setting": "GR [7]", "result": "weak inhibitor"},
      {"measurement": "IC50", "setting": "GR [7]; comparative transactivation profile, read-out: Potency, GR Antagonism", "result": 100, "unit": "nM"}
    ]}
  ]
}
